Laboratory results: patent publication US10028961B2, “Therapeutically active compounds and their methods of use” (AGIOS PHARMACEUTICALS, INC., priority 2013, dated 2018)
Where two headings read alike, the source gives them in different places.

What was measured:
[1] = molecular target: IDH1 wt/IDH1 R132H heterodimer (Homo sapiens (Human), UniProt O75874, R132H); assay: In vitro assay for IDH1m R132H inhibitors, IDH1 wt/IDH1 R132H heterodimer, NADPH depletion (diaphorase/resazurin); format: biochemical
Summary of the method: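 Purified IDH1wt-his/IDH1R132H-flag heterodimer (sf9 co-expression) pre-incubated 1 hr at room temperature with compound and NADPH before α-KG addition. Remaining NADPH read by diaphorase/resazurin conversion to fluorescent resorufin, 5 min at 25° C. Compounds diluted 1:50 from DMSO; IC50 determined.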

[2] = molecular target: IDH1 wt/IDH1 R132C heterodimer (Homo sapiens (Human), UniProt O75874, R132C); assay: In vitro assay for IDH1m R132C inhibitors, IDH1 wt/IDH1 R132C heterodimer, NADPH depletion (diaphorase/resazurin); format: biochemical; settings: NADPH/NADP
Summary of the method: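 Remaining NADPH was measured by diaphorase/resazurin conversion (5 min, 25 °C) as resorufin fluorescence, Ex 544/Em 590. DMSO was diluted 1:50 into the reaction, and IC50s were derived.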

[3] = tested on: Neurosphere cells (TS603); assay: Cellular assay for IDH1m R132H inhibitors, 2-HG by LC-MS in neurosphere cells (TS603); format: cell-based; settings: 2-HG in media at 48 hours
Summary of the method: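 TS603 neurosphere cells in NeuroCult medium were dosed with compound (0.25% DMSO final) at 37 C, 5% CO2. After 48 hours, medium 2-HG was measured by LC-MS. At 72 hours, viability was read by CellTiter-Glo luminescence.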

[4] = IDH1 wt/R132H heterodimer, NADPH/NADP, not saturated, read-out: IDH1 wt/R132H NADPH/NADP IC50 not saturated
[5] = IDH1 wt/IDH1 R132H heterodimer, 300 μM NADP (saturated), read-out: IDH1 wt/R132H NADPH/NADP IC50 saturated

IDH1 wt/IDH1 R132C heterodimer, sequence (O75874 whole entry R132C): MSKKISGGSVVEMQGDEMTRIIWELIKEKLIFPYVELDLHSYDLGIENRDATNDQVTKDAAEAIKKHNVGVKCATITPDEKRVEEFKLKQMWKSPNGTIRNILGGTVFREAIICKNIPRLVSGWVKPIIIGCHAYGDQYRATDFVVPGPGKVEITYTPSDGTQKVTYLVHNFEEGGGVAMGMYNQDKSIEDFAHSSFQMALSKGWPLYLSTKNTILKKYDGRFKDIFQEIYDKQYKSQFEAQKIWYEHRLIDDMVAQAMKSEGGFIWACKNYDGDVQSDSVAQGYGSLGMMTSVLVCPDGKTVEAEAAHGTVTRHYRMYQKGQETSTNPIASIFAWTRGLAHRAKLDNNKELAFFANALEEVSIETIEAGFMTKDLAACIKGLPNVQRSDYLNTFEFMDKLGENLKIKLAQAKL
IDH1 wt/IDH1 R132C heterodimer, sequence (O75874 whole entry, stated change not applied): as the sequence (O75874 whole entry R132C) above, with C132R counted along it
IDH1 wt/IDH1 R132H heterodimer, sequence (O75874 whole entry R132H): as the sequence (O75874 whole entry R132C) above, with C132H counted along it
IDH1 wt/IDH1 R132H heterodimer, sequence (O75874 whole entry, stated change not applied): as the sequence (O75874 whole entry R132C) above, with C132R counted along it

Row | Structure (SMILES) | IC50 [1, 4] | IC50 [2] | IC50 [3] | IC50 [1, 5]
1 | Fc1cc(F)cc(Nc2nc(NC3CC(F)(F)C3)nc(-n3ccc(C(F)(F)F)n3)n2)c1 [Compound 106] | < 0.05 µM | – | < 0.05 µM | –
2 | CCC(Nc1nc(NC(CC)C2CC2)nc(-c2cccc(Cl)n2)n1)C1CC1 (centres unmarked) [Compound 110] | < 0.05 µM | < 0.05 µM | < 0.05 µM | –
3 | FC1(F)CCC(Nc2nc(NC3CCC(F)(F)C3)nc(-c3cccc(Cl)n3)n2)C1 (centres unmarked) [Compound 113] | < 0.05 µM | < 0.05 µM | < 0.05 µM | –
4 | C[C@@H](Nc1nc(N[C@H](C)C2CC2)nc(-n2ccc(C(F)(F)F)n2)n1)C1CC1 [Compound 121] | < 0.05 µM | < 0.05 µM | < 0.05 µM | –
5 | FC1(F)CC(Nc2nc(NC3CC(F)(F)C3)nc(-n3ccc(C(F)(F)F)n3)n2)C1 [Compound 126] | < 0.05 µM | < 0.05 µM | < 0.05 µM | –
6 | N#CC1(c2cc(Nc3nc(NC4CCC(F)(F)C4)nc(-c4cccc(Cl)n4)n3)ccn2)CC1 (centres unmarked) [Compound 127] | < 0.05 µM | < 0.05 µM | < 0.05 µM | –
7 | FC1(F)CC(Nc2nc(NC3CC(F)(F)C3)nc(-c3nc(C(F)(F)F)cs3)n2)C1 [Compound 128] | < 0.05 µM | < 0.05 µM | < 0.05 µM | –
8 | Clc1cccc(-c2nc(NC(C3CC3)C3CC3)nc(NC(C3CC3)C3CC3)n2)n1 [Compound 131] | < 0.05 µM | < 0.05 µM | < 0.05 µM | –
9 | CC(Nc1nc(Nc2ccnc(C3(C#N)CC3)c2)nc(-c2cccc(Cl)n2)n1)C(F)(F)F (centres unmarked) [Compound 134] | < 0.05 µM | < 0.05 µM | < 0.05 µM | –
10 | FC(F)c1cccc(-c2nc(NC3CC(F)(F)C3)nc(NC3CC(F)(F)C3)n2)n1 [Compound 145] | < 0.05 µM | < 0.05 µM | < 0.05 µM | –
11 | FC1(F)CCC(Nc2nc(NC3CCC(F)(F)C3)nc(-n3ccc(C(F)(F)F)n3)n2)C1 (centres unmarked) [Compound 146] | < 0.05 µM | < 0.05 µM | < 0.05 µM | –
12 | FC1(F)CCC(Nc2nc(NC3CCC(F)(F)CC3)nc(-c3cncc(Cl)n3)n2)CC1 [Compound 147] | < 0.05 µM | < 0.05 µM | < 0.05 µM | –
13 | FC1(F)CCC(Nc2nc(NC3Cc4ccccc4C3)nc(-c3cccc(C(F)(F)F)n3)n2)C1 (centres unmarked) [Compound 152] | < 0.05 µM | < 0.05 µM | < 0.05 µM | –
14 | FC1(F)CCC(Nc2nc(NC3CCC(F)(F)CC3)nc(-c3cncc(C(F)(F)F)n3)n2)CC1 [Compound 160] | < 0.05 µM | – | < 0.05 µM | –
15 | CC(C)(C)Nc1nc(Nc2ccnc(C#N)c2)nc(-c2cccc(C(F)(F)F)n2)n1 [Compound 162] | < 0.05 µM | < 0.05 µM | < 0.05 µM | –
16 | C[C@@H](Nc1nc(Nc2ccnc(C3(C#N)CC3)c2)nc(-c2cccc(Cl)n2)n1)C1CC1 [Compound 167] | < 0.05 µM | < 0.05 µM | < 0.05 µM | –
17 | FC1(F)CC(Nc2nc(NC3CC(F)(F)C3)nc(-c3csc(C(F)(F)F)n3)n2)C1 [Compound 170] | < 0.05 µM | < 0.05 µM | < 0.05 µM | –
18 | FC1(F)CCC(Nc2nc(NC3CCC(F)(F)CC3)nc(-n3ccc(C(F)(F)F)n3)n2)CC1 [Compound 176] | < 0.05 µM | < 0.05 µM | < 0.05 µM | –
19 | CC(CC#N)Nc1nc(N[C@H](C)C2CC2)nc(-c2cccc(C(F)(F)F)n2)n1 (some centres unmarked) [Compound 214] | < 0.05 µM | < 0.05 µM | < 0.05 µM | –
20 | FC1(F)CCC(Nc2nc(NC3CCC(F)(F)CC3)nc(-c3csc(C(F)(F)F)n3)n2)CC1 [Compound 223] | < 0.05 µM | 0.05 to 0.1 µM | < 0.05 µM | –
21 | FC(F)c1cccc(-c2nc(NC3CCC(F)(F)CC3)nc(NC3CCC(F)(F)CC3)n2)n1 [Compound 224] | < 0.05 µM | < 0.05 µM | < 0.05 µM | –
22 | CC(=O)N1CCC(Nc2nc(NC3CCC(F)(F)CC3)nc(-c3cccc(C(F)(F)F)n3)n2)CC1 [Compound 273] | 0.1 to 1 µM | 0.1 to 1 µM | – | –
23 | FC1(F)CCC(Nc2nc(Nc3ccnc(C(F)(F)F)c3)nc(-c3cncc(C(F)(F)F)n3)n2)CC1 [Compound 389] | – | – | < 0.05 µM | < 0.05 µM
24 | FC1(F)CC[C@H](Nc2nc(Nc3ccnc(C(F)(F)F)c3)nc(-c3cncc(C(F)(F)F)n3)n2)C1 [Compound 391] | – | – | < 0.05 µM | < 0.05 µM
25 | N#CC1(c2cc(Nc3nc(NC4CC(F)(F)C4)nc(-c4cncc(C(F)(F)F)n4)n3)ccn2)CC1 [Compound 401] | – | – | < 0.05 µM | < 0.05 µM

The remaining lines, values ahead:

Row | IC50 [1, 4] | IC50 [2] | IC50 [3] | IC50 [1, 5] | Structure (SMILES)
26 | < 0.05 µM | < 0.05 µM | < 0.05 µM | – | CC(F)(F)c1cccc(-c2nc(NC3CCC(F)(F)C3)nc(NC3CCC(F)(F)C3)n2)n1 (centres unmarked) [Compound 105]
27 | < 0.05 µM | < 0.05 µM | < 0.05 µM | – | FC1(F)CCC(Nc2nc(Nc3ccnc(C(F)(F)F)c3)nc(-c3cccc(Cl)n3)n2)C1 (centres unmarked) [Compound 115]
28 | < 0.05 µM | < 0.05 µM | – | – | CC(C)(C)Nc1nc(Nc2cccc(C#N)c2)nc(-c2cccc(C(F)(F)F)n2)n1 [Compound 117]
29 | < 0.05 µM | < 0.05 µM | < 0.05 µM | – | Fc1cc(F)cc(Nc2nc(NC3CCC(F)(F)C3)nc(-c3cccc(C(F)(F)F)n3)n2)c1 (centres unmarked) [Compound 123]
30 | < 0.05 µM | < 0.05 µM | < 0.05 µM | – | N#Cc1cc(F)cc(Nc2nc(NC3CCC(F)(F)C3)nc(-c3cccc(C(F)(F)F)n3)n2)c1 (centres unmarked) [Compound 124]
31 | < 0.05 µM | < 0.05 µM | < 0.05 µM | – | FC1(F)CC(Nc2nc(NC3CC(F)(F)C3)nc(-c3cccc(C(F)(F)F)n3)n2)C1 [Compound 149]
32 | < 0.05 µM | < 0.05 µM | < 0.05 µM | – | N#CC1(c2cc(Nc3nc(NC4CCC(F)(F)C4)nc(-c4cccc(C(F)(F)F)n4)n3)ccn2)CC1 (centres unmarked) [Compound 151]
33 | < 0.05 µM | – | < 0.05 µM | – | FC1(F)CC(Nc2nc(NC3CC(F)(F)C3)nc(-c3cncc(C(F)(F)F)n3)n2)C1 [Compound 161]
34 | < 0.05 µM | < 0.05 µM | < 0.05 µM | – | N#Cc1cc(F)cc(Nc2nc(NC3CCC(F)(F)CC3)nc(-c3cccc(C(F)(F)F)n3)n2)c1 [Compound 164]
35 | < 0.05 µM | – | < 0.05 µM | – | N#CC1(c2cc(Nc3nc(NC4CC(F)(F)C4)nc(-c4cccc(C(F)(F)F)n4)n3)ccn2)CC1 [Compound 168]
36 | < 0.05 µM | < 0.05 µM | < 0.05 µM | – | FC1(F)CCC(Nc2nc(Nc3ccnc(C(F)(F)F)c3)nc(-c3cccc(C(F)(F)F)n3)n2)C1 (centres unmarked) [Compound 178]
37 | < 0.05 µM | < 0.05 µM | < 0.05 µM | – | N#Cc1cc(Nc2nc(NC3CCC(F)(F)C3)nc(-c3cccc(C(F)(F)F)n3)n2)ccn1 (centres unmarked) [Compound 181]
38 | < 0.05 µM | < 0.05 µM | < 0.05 µM | – | FC1(F)CCC(Nc2nc(NC3Cc4ccc(Cl)cc4C3)nc(-c3cccc(C(F)(F)F)n3)n2)C1 (centres unmarked) [Compound 182]
39 | < 0.05 µM | < 0.05 µM | < 0.05 µM | – | CC(F)(F)c1cccc(-c2nc(NC3CC(F)(F)C3)nc(NC3CC(F)(F)C3)n2)n1 [Compound 187]
40 | < 0.05 µM | < 0.05 µM | < 0.05 µM | – | N#CC1(c2cc(Nc3nc(NC4CCC(F)(F)CC4)nc(-c4cccc(C(F)(F)F)n4)n3)ccn2)CC1 [Compound 189]
41 | < 0.05 µM | < 0.05 µM | < 0.05 µM | – | FC1(F)CCC(Nc2nc(NC3CC4(C3)CC(F)(F)C4)nc(-c3cccc(C(F)(F)F)n3)n2)C1 (centres unmarked) [Compound 191]
42 | < 0.05 µM | < 0.05 µM | < 0.05 µM | – | FC1(F)CCC(Nc2nc(Nc3ccnc(C(F)(F)F)c3)nc(-c3cccc(C(F)(F)F)n3)n2)CC1 [Compound 192]
43 | < 0.05 µM | < 0.05 µM | < 0.05 µM | – | C[C@@H](Nc1nc(NC(C2CC2)C2CC2)nc(-c2cccc(C(F)(F)F)n2)n1)C1CC1 [Compound 193]
44 | < 0.05 µM | < 0.05 µM | < 0.05 µM | – | Fc1ccc([C@H]2C[C@@H](Nc3nc(NC4CCC(F)(F)C4)nc(-c4cccc(C(F)(F)F)n4)n3)C2)cc1 (some centres unmarked) [Compound 199]
45 | < 0.05 µM | < 0.05 µM | < 0.05 µM | – | CC(Nc1nc(N[C@H](C)C2CC2)nc(-c2cccc(C(F)(F)F)n2)n1)C(F)(F)F (some centres unmarked) [Compound 203]
46 | < 0.05 µM | < 0.05 µM | < 0.05 µM | – | N#Cc1cc(Nc2nc(NC3CC(F)(F)C3)nc(-c3cccc(C(F)(F)F)n3)n2)ccn1 [Compound 213]
47 | < 0.05 µM | 0.05 to 0.1 µM | < 0.05 µM | – | FC1(F)CCC(Nc2nc(NC3CCN(c4ccccn4)C3)nc(-c3cccc(C(F)(F)F)n3)n2)C1 (centres unmarked) [Compound 222]
48 | 0.1 to 1 µM | 0.1 to 1 µM | – | – | FC1(F)CCC(Nc2nc(NC3CCOCC3)nc(-c3cccc(C(F)(F)F)n3)n2)CC1 [Compound 255]
49 | 0.1 to 1 µM | 0.1 to 1 µM | – | – | O=C(c1ccccc1)N1CCC(Nc2nc(NC3CCC(F)(F)C3)nc(-c3cccc(C(F)(F)F)n3)n2)C1 (centres unmarked) [Compound 263]
50 | 0.1 to 1 µM | 0.1 to 1 µM | – | – | Fc1ccc([C@H]2C[C@@H](Nc3nc(N[C@H]4C[C@@H](c5ccc(F)cc5)C4)nc(-c4cccc(C(F)(F)F)n4)n3)C2)cc1 [Compound 272]
51 | 0.1 to 1 µM | ≥ 1 µM | – | – | FC1(F)CCC(Nc2nc(NC3CCN(Cc4ccccc4)C3)nc(-c3cccc(C(F)(F)F)n3)n2)C1 (centres unmarked) [Compound 280]
